Source: patent US20140309192A1, “MODULATORS OF THE G PROTEIN-COUPLED MAS RECEPTOR AND THE TREATMENT OF DISORDERS RELATED THERETO” (ARENA PHARMACEUTICALS, INC., priority 2011, published 2014)
Structures can show the parent of a compound that is named as a salt.

Experiment: Dynamic moisture-sorption (DMS)
Assay type: physicochemical
Conditions: for hygroscopicity (DMS) / total weight gain from the dried state (DMS): 25° C.; for weight gain at 90% RH and 25° C. (DMS): after a drying period
Description: A dynamic moisture-sorption (DMS) study was conducted using a dynamic moisture-sorption analyzer, VTI Corporation, SGA-100. Samples were prepared for DMS analysis by placing 5 mg to 20 mg of a sample in a tared sample holder. The sample was placed on the hang-down wire of the VTI balance. A drying step was run, typically at 40° C. and 0.5-1% RH for 1 h. The isotherm temperature is 25° C. Defined % RH holds typically ranged from 10% RH to 90% RH, with intervals of 10 to 20% RH. A % weight change smaller than 0.010% over 10 min, or up to 2 h, whichever occurred first, was required before continuing to the next % RH hold. The water content of the sample equilibrated as described above was determined at each % RH hold.

Row | SMILES | hygroscopicity (DMS) | weight gain at 90% RH and 25° C. (DMS) | water picked up from 30% RH to 90% RH at 25° C. (DMS) | total weight gain from the dried state (DMS)
1 | NC(=O)[C@H](CO)NCc1ccc(C(=O)Nc2ccc(Cl)cc2N2CCN(CCC(F)(F)F)CC2)c(F)c1F [Compound 170 (Example 2.5B)] | FIG. 11: This polymorph of the free base is non-hygroscopic, | increasing ~0.1% weight at 90% RH and 25 °C | – | –
2 | NC(=O)[C@H](CO)NCc1ccc(C(=O)Nc2ccc(Cl)cc2N2CCN(CCC(F)(F)F)CC2)c(F)c1F [Compound 170 dihydrochloride hydrate] | – | – | 0.7% water from 30% RH to 90% RH at 25 °C | dried state was about 2.5%. The sample picked up only about
3 | NC(=O)[C@H](CO)NCc1ccc(C(=O)Nc2ccc(Cl)cc2N2CCN(CCC(F)(F)F)CC2)c(F)c1F [Compound 170 dihydrochloride solvate] | – | – | – | The total weight gain from the dried state was about 2%, thus
4 | Cl.Cl.NC(=O)[C@H](CO)NCc1ccc(C(=O)Nc2ccc(Cl)cc2N2CCN(CCC(F)(F)F)CC2)c(F)c1F [Compound 170 dihydrochloride, (S)-4-((1-amino-3-hydroxy-1-oxopropan-2-ylamino)methyl)-N-(4-chloro-2-(4-(3,3,3-trifluoropropyl)piperazin-1-yl)phenyl)-2,3-difluorobenzamide dihydrochloride] | – | drying period, was about 3.4%. It was shown by PXRD of the | – | –
5 | NC(=O)[C@H](CO)NCc1ccc(C(=O)Nc2ccc(Cl)cc2N2CCN(CCC(F)(F)F)CC2)c(F)c1F [Compound 170, (S)-4-((1-Amino-3-hydroxy-1-oxopropan-2-ylamino)methyl)-N-(4-chloro-2-(4-(3,3,3-trifluoropropyl)piperazin-1-yl)phenyl)-2,3-difluorobenzamide] | non-hygroscopic | ~0.1% | – | –
